Laboratory results reported in ChEMBL document CHEMBL1138640, “Synthesis, radiolabeling, and preliminary biological evaluation of [3H]-1-[(S)-N,O-bis-(isoquinolinesulfonyl)-N-methyl-tyrosyl]-4-(o-tolyl)-piperazine, a potent antagonist radioligand for the P2X7 receptor” (Bioorg Med Chem Lett, 2004).

Columns and labels:
[1] = system: Cell line; experiment: inhibitory concentration against ATP-dependant calcium influx across plasma membrane of human monocytes; type: functional, cell-based
[2] = molecular target: T1, P2X purinoceptor 7 (Homo sapiens, UniProt Q99572); experiment: Equilibrium constant for P2X purinoceptor 7 expressed in HEK 293 cells at 1 uM; type: cell-based, HEK293
T1 sequence (Q99572 whole entry): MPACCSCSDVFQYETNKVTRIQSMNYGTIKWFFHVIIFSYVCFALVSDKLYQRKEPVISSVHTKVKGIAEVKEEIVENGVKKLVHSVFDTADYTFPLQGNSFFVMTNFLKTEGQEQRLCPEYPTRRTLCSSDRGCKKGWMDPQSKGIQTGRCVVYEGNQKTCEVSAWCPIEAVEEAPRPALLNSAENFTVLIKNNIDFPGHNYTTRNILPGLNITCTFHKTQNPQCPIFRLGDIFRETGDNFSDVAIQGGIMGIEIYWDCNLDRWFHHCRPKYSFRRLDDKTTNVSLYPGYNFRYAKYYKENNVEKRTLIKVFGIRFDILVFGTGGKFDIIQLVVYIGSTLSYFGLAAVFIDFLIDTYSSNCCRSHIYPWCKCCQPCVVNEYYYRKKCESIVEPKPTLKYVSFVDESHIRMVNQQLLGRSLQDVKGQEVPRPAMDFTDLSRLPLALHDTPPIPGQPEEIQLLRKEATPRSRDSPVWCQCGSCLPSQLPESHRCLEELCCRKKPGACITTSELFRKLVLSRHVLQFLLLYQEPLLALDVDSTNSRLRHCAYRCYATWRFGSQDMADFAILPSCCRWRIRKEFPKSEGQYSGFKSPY

[3] = molecular target: T1, P2X purinoceptor 7; experiment: Maximum binding affinity towards P2X purinoceptor 7 expressed in HEK 293 cells; type: cell-based, HEK293
[4] = molecular target: T2, P2X purinoceptor 7 (Homo sapiens) (UniProt Q99572); conditions: HEK293, 1 uM
T2 sequence (whole entry): T1 sequence (Q99572 whole entry)
Description: Dissociation rate constant for P2X purinoceptor 7 expressed in HEK 293 cells at 1 uM

[5] = molecular target: T2, P2X purinoceptor 7 (Homo sapiens); conditions: HEK293
Description: Association rate constant towards P2X purinoceptor 7 expressed in HEK 293 cells

Structure (SMILES): CN([C@@H](Cc1ccc(OS(=O)(=O)c2cccc3cnccc23)cc1)C(=O)N1CCN(c2ccccc2)CC1)S(=O)(=O)c1cccc2cnccc12
- IC50 [1]: 51 nM

Structure (SMILES): Cc1ccccc1N1CCN(C(=O)[C@H](Cc2ccc(OS(=O)(=O)c3cccc4cnccc34)cc2)N(C)S(=O)(=O)c2cccc3cnccc23)CC1
- IC50 [1]: 15 nM
- Kd [2]: 3.57 nM
- Kd [3]: 3.57 nM
- K-1 [4]: 0.025 min⁻¹
- k obs [5]: 0.000767 s⁻¹
